Experimental data: PubChem BioAssay AID248 (DTP/NCI, 2004)
Values joined by “and” are separate entries in the source; they are usually repeats but may differ in a detail not shown here. Identical values can stand only once. Toxic doses and inconclusive results are not listed. No stated cut-off is given here; in the data, active means T/C of 150% or more; inactive means T/C below 125%.

Tested on: L1210 leukemia ip in BDF1 mice, survival T/C
Assay: NCI In Vivo Anticancer Drug Screen. Data for tumor model L1210 Leukemia (intraperitoneal) in B6D2F1 (BDF1) mice
Settings: endpoint: mean survival time, higher = longer survival
Outline: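 Transplantable tumor model; survival measured in treated vs vehicle control mice. Value = treated/control.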

[1] = dose: 100.0 mg/kg/injection, schedule: Q04DX003 (ip), vehicle: saline with Tween-80
[2] = dose: 200.0 mg/kg/injection, schedule: Q04DX003 (ip), vehicle: saline with Tween-80
[3] = dose: 400.0 mg/kg/injection, schedule: Q04DX003 (ip), vehicle: saline with Tween-80
[4] = dose: 50.0 mg/kg/injection, schedule: Q01DX009 (ip), vehicle: saline
[5] = dose: 100.0 mg/kg/injection, schedule: Q01DX009 (ip), vehicle: saline
[6] = dose: 200.0 mg/kg/injection, schedule: Q01DX009 (ip), vehicle: saline
[7] = dose: 100.0 mg/kg/injection, schedule: Q04DX003 (ip), vehicle: Klucel (hydroxypropylcellulose) (HPC)
[8] = dose: 200.0 mg/kg/injection, schedule: Q04DX003 (ip), vehicle: Klucel (hydroxypropylcellulose) (HPC)
[9] = dose: 400.0 mg/kg/injection, schedule: Q04DX003 (ip), vehicle: Klucel (hydroxypropylcellulose) (HPC)
[10] = dose: 50.0 mg/kg/injection, schedule: Q01DX009 (ip), vehicle: saline with Tween-80
[11] = dose: 100.0 mg/kg/injection, schedule: Q01DX009 (ip), vehicle: saline with Tween-80
[12] = dose: 200.0 mg/kg/injection, schedule: Q01DX009 (ip), vehicle: saline with Tween-80
[13] = dose: 100.0 mg/kg/injection, schedule: Q01DX009 (ip), vehicle: Klucel (hydroxypropylcellulose) (HPC)
[14] = dose: 200.0 mg/kg/injection, schedule: Q01DX009 (ip), vehicle: Klucel (hydroxypropylcellulose) (HPC)
[15] = dose: 400.0 mg/kg/injection, schedule: Q01DX009 (ip), vehicle: Klucel (hydroxypropylcellulose) (HPC)
[16] = dose: 50.0 mg/kg/injection, schedule: Q01DX001 (ip), vehicle: saline
[17] = dose: 100.0 mg/kg/injection, schedule: Q01DX001 (ip), vehicle: saline
[18] = dose: 200.0 mg/kg/injection, schedule: Q01DX001 (ip), vehicle: saline
[19] = dose: 400.0 mg/kg/injection, schedule: Q01DX001 (ip), vehicle: saline
[20] = dose: 100.0 mg/kg/injection, schedule: Q04DX002 (ip), vehicle: Klucel (hydroxypropylcellulose) (HPC)
[21] = dose: 200.0 mg/kg/injection, schedule: Q04DX002 (ip), vehicle: Klucel (hydroxypropylcellulose) (HPC)
[22] = dose: 100.0 mg/kg/injection, schedule: Q01DX001 (ip), vehicle: carboxymethylcellulose (CMC)
[23] = dose: 100.0 mg/kg/injection, schedule: Q04DX003 (ip), vehicle: saline
[24] = dose: 200.0 mg/kg/injection, schedule: Q04DX003 (ip), vehicle: saline
[25] = dose: 400.0 mg/kg/injection, schedule: Q04DX003 (ip), vehicle: saline

Measured: T/C

CCCCCCCC(=O)Nc1ccc(C)c(C)c1
inactive: [1] 93 % of control | [2] 98 % of control | [3] 93 % of control

CN1CCC(CC(=O)O)CC1
inactive: [4] 92 % of control | [5] 92 % of control | [6] 111 % of control

CC1(C)C2CC3C(C(=O)O)C(C(=O)O)CCC3(C2)C1OC=O (configuration not stated)
inactive: [7] 99 % of control | [8] 92 % of control | [9] 103 % of control

[O-][n+]1ccccc1C(c1ccccc1)c1ccccc1
inactive: [10] 90 % of control | [11] 90 % of control | [12] 90 % of control

Cc1cc(OCCOC(=O)Nc2ccccc2F)ccc1Cl
inactive: [13] 107 % of control | [14] 102 % of control | [15] 112 % of control

CC(=O)OCC(C)(C)COS(=O)(=O)c1ccc(Br)cc1
inactive: [10] 100 % of control | [11] 89 % of control | [12] 89 % of control

CCOc1ncc([N+](=O)[O-])c(OCC)n1
inactive: [16] 103 % of control | [17] 106 % of control | [18] 103 % of control | [19] 100 % of control

C/C(=N/OC(=O)N(C)C)c1ccc(Cl)cc1Cl
inactive: dose: 100.0 mg/kg/injection, schedule: Q01DX001 (ip), vehicle: other 107 % of control

CCC(=O)n1cc2ccc([N+](=O)[O-])cc2n1
inactive: [20] 112 % of control | [21] 104 % of control | dose: 400.0 mg/kg/injection, schedule: Q04DX002 (ip), vehicle: Klucel (hydroxypropylcellulose) (HPC) 101 % of control

CCCCCCCCCCCCCC[n+]1ccccc1
inactive: dose: 0.25 mg/kg/injection, schedule: Q04DX003 (ip), vehicle: saline 96 % of control | dose: 0.5 mg/kg/injection, schedule: Q01DX001 (ip), vehicle: saline 97 % of control | dose: 0.5 mg/kg/injection, schedule: Q04DX003 (ip), vehicle: saline 94 % of control | dose: 1.0 mg/kg/injection, schedule: Q01DX001 (ip), vehicle: saline 105 % of control | dose: 1.0 mg/kg/injection, schedule: Q04DX003 (ip), vehicle: saline 96 % of control | dose: 2.0 mg/kg/injection, schedule: Q01DX001 (ip), vehicle: saline 112 % of control | dose: 2.0 mg/kg/injection, schedule: Q04DX003 (ip), vehicle: saline 96 % of control | dose: 4.0 mg/kg/injection, schedule: Q04DX003 (ip), vehicle: saline 109 % of control | dose: 62.5 micrograms/kg/injection, schedule: Q01DX009 (ip), vehicle: saline 119 % of control | dose: 125.0 micrograms/kg/injection, schedule: Q01DX009 (ip), vehicle: saline 100 % of control | dose: 250.0 micrograms/kg/injection, schedule: Q01DX009 (ip), vehicle: saline 113 % of control | dose: 500.0 micrograms/kg/injection, schedule: Q01DX009 (ip), vehicle: saline 105 % of control | dose: 1000.0 micrograms/kg/injection, schedule: Q01DX009 (ip), vehicle: saline 110 % of control

CCCCCCN1CC1
inactive: dose: 15.0 mg/kg/injection, schedule: Q01DX001 (ip), vehicle: saline 102 % of control | dose: 30.0 mg/kg/injection, schedule: Q01DX001 (ip), vehicle: saline 98 % of control

CC(=O)c1cc2cc(Br)ccc2oc1=O
inactive: [13] 98 % of control | [14] 88 % of control | [15] 96 % of control

O=C(Nc1cccc(C2=NCCCN2)c1)c1ccc(C(=O)Nc2cccc(C3=NCCCN3)c2)c([N+](=O)[O-])c1
inactive: dose: 0.05 mg/kg/injection, schedule: Q01DX015 (ip), vehicle: water 98 % of control | dose: 0.09 mg/kg/injection, schedule: Q01DX015 (ip), vehicle: water 96 % of control | dose: 0.19 mg/kg/injection, schedule: Q01DX015 (ip), vehicle: water 98 % of control | dose: 0.38 mg/kg/injection, schedule: Q01DX015 (ip), vehicle: water 101 % of control | dose: 0.5 mg/kg/injection, schedule: Q01DX015 (ip), vehicle: water 97 % of control

CC(Cl)CN(Cc1c(O)ccc2ccccc12)CC(C)Cl (configuration not stated)
inactive: [22] 96 % of control | dose: 200.0 mg/kg/injection, schedule: Q01DX001 (ip), vehicle: carboxymethylcellulose (CMC) 107 % of control | dose: 400.0 mg/kg/injection, schedule: Q01DX001 (ip), vehicle: carboxymethylcellulose (CMC) 101 % of control

CCCCOC(OCCCC)c1ccccc1
inactive: dose: 50.0 mg/kg/injection, schedule: Q01DX001 (ip), vehicle: carboxymethylcellulose (CMC) 95 % of control | [22] 88 % of control

CCCCOC(=O)CC(=O)OCCCC
inactive: [13] 96 % of control | [7] 88 % of control | [8] 95 % of control | [15] 86 % of control | [9] 97 % of control

CCCCn1nnc2ccc([N+](=O)[O-])cc2c1=O
inactive: [13] 92 % of control | [14] 87 % of control

CC12CCC(C)(O1)C1C(=O)OC(=O)C12 (configuration not stated)
inactive: [7] 96 % of control | [8] 98 % of control | [9] 98 % of control

CC(C)CN1CCC(=O)NC1=O
inactive: dose: 100.0 mg/kg/injection, schedule: Q01DX Z (ip), vehicle: saline 100 % of control | dose: 200.0 mg/kg/injection, schedule: Q01DX Z (ip), vehicle: saline 94 % of control

CC(=O)Nc1ccc(OC(=O)Nc2cccc(Cl)c2C)cc1
inactive: [10] 88 % of control and 92 % of control | dose: 100.0 mg/kg/injection, schedule: Q01DX001 (ip), vehicle: saline with Tween-80 92 % of control | dose: 100.0 mg/kg/injection, schedule: Q04DX002 (ip), vehicle: saline with Tween-80 87 % of control and 89 % of control | [1] 93 % of control | dose: 200.0 mg/kg/injection, schedule: Q01DX001 (ip), vehicle: saline with Tween-80 94 % of control | dose: 200.0 mg/kg/injection, schedule: Q04DX002 (ip), vehicle: saline with Tween-80 86 % of control | [2] 87 % of control | dose: 400.0 mg/kg/injection, schedule: Q01DX001 (ip), vehicle: saline with Tween-80 100 % of control | dose: 400.0 mg/kg/injection, schedule: Q01DX009 (ip), vehicle: saline with Tween-80 101 % of control | dose: 400.0 mg/kg/injection, schedule: Q04DX002 (ip), vehicle: saline with Tween-80 96 % of control and 86 % of control | [3] 90 % of control

Cc1c([N+](=O)[O-])oc2ccc(Cl)cc12
inactive: dose: 50.0 mg/kg/injection, schedule: Q04DX002 (ip), vehicle: Klucel (hydroxypropylcellulose) (HPC) 93 % of control | [13] 100 % of control | [20] 87 % of control | [14] 91 % of control | [21] 93 % of control | [15] 95 % of control

COC(=O)CCCNC(=O)/C=C1/c2cc(OC)c(OC)cc2CCC1S(=O)(=O)OC (configuration not stated)
inactive: [5] 100 % of control | [23] 105 % of control | [6] 110 % of control | [24] 97 % of control | dose: 400.0 mg/kg/injection, schedule: Q01DX009 (ip), vehicle: saline 88 % of control | [25] 100 % of control

CN(C)P(=O)(Nc1ccc(Cl)cc1)Nc1ccc(Cl)cc1
inactive: [7] 94 % of control | [8] 96 % of control | [9] 100 % of control

Cc1nc2c(c(=O)[nH]1)OCN(C)C2
inactive: [16] 104 % of control | [17] 101 % of control | [18] 109 % of control | [19] 122 % of control

CCOC(=O)/C(=C\C(C(=O)OCC)C(=O)OCC)CC
inactive: [17] 106 % of control | [18] 103 % of control | [19] 95 % of control

CSC(N)=Nc1cccc2c1CCCC2
inactive: [4] 98 % of control | dose: 50.0 mg/kg/injection, schedule: Q04DX003 (ip), vehicle: saline 102 % of control | [5] 98 % of control | [23] 88 % of control | [24] 92 % of control

CC(=O)N(C)c1ccc(NC(=O)Nc2ccc([N+](=O)[O-])cc2Cl)cc1
inactive: [23] 96 % of control | [24] 95 % of control | [25] 88 % of control
